Experimental data as given in patent US20050256034A1, “Dioxolane analogs for improved inter-cellular delivery” (priority 2000, published 2005).
Where two headings read alike, the source gives them in different places.

Experiment: 3H-Thymidine Incorporation Assay (24 hr drug, wash, another 48 hr; 72 hr assay)
Type: cell-based
Conditions: for Factor (Resistance Factor = Ratio of dCK- on Wild-type CCRF-CEM) / Resistance Factor = Ratio of dCK- on Wild-type CCRF-CEM: ratio of IC50 CEM/dCK- to IC50 CCRF-CEM; for Factor (Resistance Factor = Ratio of dCK- on Wild-type CCRF-CEM): 24 h exposure; for IC50: wash, another 48 hr
[1] = CCRF-CEM, read-out: IC50 (3H-TdR incorporation at 72 hr) CCRF-CEM 24 h, CCRF-CEM T-cell leukemia, 24 hr exposure to drug
[2] = CCRF-CEM, read-out: IC50 (3H-TdR incorporation at 72 hr) CEM/dCK- 24 h, CEM/dCK- (CCRF-CEM deoxycytidine kinase-deficient), 24 hr exposure to drug
[3] = MCF7, read-out: IC50 (3H-TdR incorporation at 72 hr) MCF-7 24 h, MCF-7 human breast carcinoma, 24 hr exposure to drug
[4] = NCI-H460, read-out: IC50 (3H-TdR incorporation at 72 hr) H-460 24 h, H-460 human lung carcinoma, 24 hr exposure to drug
[5] = SF-268, read-out: IC50 (3H-TdR incorporation at 72 hr) SF-268 24 h, SF-268 human central nervous system tumor, 24 hr exposure to drug

## Nc1ccn([C@@H]2CO[C@H](COC(=O)C34CC5CC(CC(C5)C3)C4)O2)c(=O)n1 [Compound 110, ADAMANTANE-1-CARBOXYLIC ACID 4-(4-AMINO-2-OXO-2H-PYRI- MIDIN-1-YL)-[1,3]DI- OXOLAN-2-YLMETHYL ESTER]
  Factor (Resistance Factor = Ratio of dCK- on Wild-type CCRF-CEM): 3 307

## CC(C)(C)OC(=O)N(CCCCC(=O)OC[C@H]1OC[C@@H](n2ccc(N)nc2=O)O1)Cc1ccccc1 [Compound 111, 5-(BENZYL-TERT-BUTOXY- CARBONYL-AMINO)-PENTANOIC ACID 4-(4-A- MINO-2-OXO-2H-PYRI- MIDIN-1-YL)-[1,3]DI- OXOLAN-2-YLMETHYL ESTER]
  Factor (Resistance Factor = Ratio of dCK- on Wild-type CCRF-CEM): 13000

## COc1cc2c(cc1OC)C(=O)/C(=C/c1cc(C)c(OC(=O)OC[C@H]3OC[C@@H](n4ccc(N)nc4=O)O3)c(C)c1)C2 [Compound 112, CARBONIC ACID 4(S)-(4′-A- MINO-2′-OXO-2H-PYRI- MIDIN-1′-YL)-[1,3]DI- OXOLAN-2(S)-YL- METHYL ESTER 4-(5″,6″-DI- METHOXY-1″-OXO-IN- DAN-2″-YLIDENE- METHYL)-2,6-DI- METHYL-PHENYL ESTER]
CCRF-CEM, read-out: IC50 in μM (3H-TdR incorporation at 72 hr) CEM/dCK- 24 h, CEM/dCK- (CCRF-CEM deoxycytidine kinase-deficient), 24 h exposure to drug
  IC50: 0.057 µM
  Factor (Resistance Factor = Ratio of dCK- on Wild-type CCRF-CEM): 10

## COC1(OC[C@H]2OC[C@@H](n3ccc(N)nc3=O)O2)CCCCC1 [Compound 113, 4-AMINO-1-([2-(1-METH- OXY-CYCLO- HEXYLOXYMETHYL)-[1,3]DI- OXOLAN-4-YL]-1H-PYRI- MIDIN-2-ONE]
  Factor (Resistance Factor = Ratio of dCK- on Wild-type CCRF-CEM): >1 667

## CC(C)(C)OC(=O)N(CCCCC(=O)Nc1ccn([C@@H]2CO[C@H](COC(=O)CCCCN(Cc3ccccc3)C(=O)OC(C)(C)C)O2)c(=O)n1)Cc1ccccc1 [Compound 114, 5-(BENZYL-TERT-BUTOXY- CARBONYL-AMINO)-PENTANOIC ACID 4-{4-[5-(BENZYL-TERT-BUTOXY- CARBONYL-AMINO)-PENTANOYL- AMINO]-2-OXO-2H!PYRI- MIDIN-1-YL)-[1,3]DI- OXOLAN-2-YLMETHYL ESTER]
  Factor (Resistance Factor = Ratio of dCK- on Wild-type CCRF-CEM): 500

## CC(C)(C)OC(=O)N(CCCCC(=O)Nc1ccn([C@@H]2CO[C@H](CO)O2)c(=O)n1)Cc1ccccc1 [Compound 115, BENZYL-{4-[1-(2-HYDROXY- METHYL-[1,3]DI- OXOLAN-4-YL)-2-OX- O-1,2-DIHYDRO-PYRI- MIDIN-4-YLCARBA- MOYL]-BUTYL}-CARBAMIC ACID TERT!-BUTYL ESTER]
  Factor (Resistance Factor = Ratio of dCK- on Wild-type CCRF-CEM): >500

## COc1ccc(OC(=O)OC[C@H]2OC[C@@H](n3ccc(N)nc3=O)O2)cc1 [Compound 118, CARBONIC ACID 4-(4-A- MINO-2-OXO-2H-PYRI- MIDIN-1-YL)-[1,3]DI- OXOLAN-2-YLMETHYL ESTER 4-METHOXY-PHENYL ESTER]
  Factor (Resistance Factor = Ratio of dCK- on Wild-type CCRF-CEM): >3 571

## CCCCCCNC(=O)Nc1ccn([C@@H]2CO[C@H](COC(=O)NCCCCCC)O2)c(=O)n1 [Compound 119, HEXYL-CARBAMIC ACID 4-[4-(3-HEX- YL-UREIDO)-2-OX- O-2#H!-PYRIMIDIN-1-YL]-[1,3]DI- OXOLAN-2-YLMETHYL ESTER]
  Factor (Resistance Factor = Ratio of dCK- on Wild-type CCRF-CEM): ˜2

## CCCCCCNC(=O)Nc1ccn([C@@H]2CO[C@H](CO)O2)c(=O)n1 [Compound 120, 1-HEXYL-3-[1-(2-HY- DROXYMETHYL-[1,3]DI- OXOLAN-4-YL)-2-OX- O-1,2-DIHYDRO-PYRI- MIDIN-4-YL]-UREA]
  Factor (Resistance Factor = Ratio of dCK- on Wild-type CCRF-CEM): 1

## CCCCCCNC(=O)OC[C@H]1OC[C@@H](n2ccc(N)nc2=O)O1 [Compound 121, HEXYL-CARBAMIC ACID 4-(4-A- MINO-2-OXO-2H-PYRI- MIDIN-1-YL)-[1,3]DI- OXOLAN-2-YLMETHYL ESTER]
  Factor (Resistance Factor = Ratio of dCK- on Wild-type CCRF-CEM): >6

## CCCCCCOC(=O)OC[C@H]1OC[C@@H](n2ccc(NC(=O)OCc3ccccc3)nc2=O)O1 [Compound 122, CARBONIC ACID 4-(4-BENZYLOXY- CARBONYLAMINO-2-OX- O-2H-PYRIMIDIN-1-YL)-[1,3]DI- OXOLAN-2-YLMETHYL ESTER HEXYL ESTER]
  Factor (Resistance Factor = Ratio of dCK- on Wild-type CCRF-CEM): 86

## COc1ccc(C(OC[C@H]2OC[C@@H](n3ccc(N)nc3=O)O2)(c2ccccc2)c2ccc(OC)cc2)cc1 [Compound 123, 4-AMINO-1-{2-[BIS-(4-METH- OXY-PHENYL)-PHENYL-METH- OXYMETHYL]-[1,3]DI- OXOLAN-4-YL)-1H-PYRI- MIDIN-2-ONE]
  Factor (Resistance Factor = Ratio of dCK- on Wild-type CCRF-CEM): 17

## CC(C)c1ccc(NC(=O)OC[C@H]2OC[C@@H](n3ccc(NC(=O)OCc4ccccc4)nc3=O)O2)cc1 [Compound 124, (1-[2-(4-ISOPROPYL-PHENYL- CARBAMOYLOXYMETHYL)-[1,3]DI- OXOLAN-4-YL]-2-OX- O-1,2-DIHYDRO-PYRI- MIDIN-4-YL}-CARBAMIC ACID BENZYL ESTER]
  Factor (Resistance Factor = Ratio of dCK- on Wild-type CCRF-CEM): ˜2

## CC(C)(C)OC(=O)N(CCCCC(C)(C)C(=O)Nc1ccn([C@@H]2CO[C@H](CO)O2)c(=O)n1)Cc1ccccc1 [Compound 125, Benzyl-{5-[1-(2-hydroxy-methyl-[1,3]di-oxolan-4-yl)-2-ox-o-1,2-dihydro-pyri-midin-4-ylcarba-moyl]-5-methyl-hexyl}-carbamic acid tert-butyl ester]
  Factor (Resistance Factor = Ratio of dCK- on Wild-type CCRF-CEM): 97

## COc1ccc(C(OC[C@H]2OC[C@@H](n3ccc(N)nc3=O)O2)(c2ccccc2)c2ccccc2)cc1 [Compound 134, 4-AMINO-1-{2-[(4-METH- OXY-PHENYL)-DI- PHENYL-METH- OXYMETHYL]-[1,3]DI- OXOLAN-4-YL}-1H-PYRI- MIDIN-2-ONE]
  Factor (Resistance Factor = Ratio of dCK- on Wild-type CCRF-CEM): 3

## O=c1nc(NC2Sc3ccccc3S2)ccn1[C@@H]1CO[C@H](CO)O1 [Compound 136, 4-(BENZO[1,3]DITHIOL-2-YL- AMINO)-1-(2-HYDROXY- METHYL-[1,3]DI- OXOLAN-4-YL)-1H!PYRI- MIDIN-2-ONE]
  Factor (Resistance Factor = Ratio of dCK- on Wild-type CCRF-CEM): >25

## COC(OC)(OC[C@H]1OC[C@@H](n2ccc(N)nc2=O)O1)c1ccccc1 [Compound 139, 4-AMINO-1-[2-(DI- METHOXY-PHENYL-METH- OXYMETHYL)-[1,3]DI- OXOLAN-4-YL]-1H-PYRI- MIDIN-2-ONE]
  Factor (Resistance Factor = Ratio of dCK- on Wild-type CCRF-CEM): >250

## CN(Cc1ccccc1)C(=O)OC[C@H]1OC[C@@H](n2ccc(N)nc2=O)O1 [Compound 140, BENZYL-METHYL-CARBAMIC ACID 4-(4-AMINO-2-OXO-2H-PYRI- MIDIN-1-YL)-[1,3]DI- OXOLAN-2-YLMETHYL ESTER]
  Factor (Resistance Factor = Ratio of dCK- on Wild-type CCRF-CEM): >9

## O=c1nc(NC2(c3ccccc3)c3ccccc3Oc3ccccc32)ccn1[C@@H]1CO[C@H](COC2(c3ccccc3)c3ccccc3Oc3ccccc32)O1 [Compound 144, 4-(9-PHENYL-9#H!-XAN- THEN-9-YLAMINO)-1-[2-(9-PHE- NYL-9#H!-XAN- THEN-9-YLOXYMETHYL)-[1,3]DI- OXOLAN-4-YL]-1#H!-PYRI- MIDIN-2-ONE]
  Factor (Resistance Factor = Ratio of dCK- on Wild-type CCRF-CEM): 110

## Nc1ccn([C@@H]2CO[C@H](COC(=S)Oc3ccccc3)O2)c(=O)n1 [Compound 147, THIOCARBONIC ACID O-[4(S)-(4′-A- MINO-2′-OXO-2H-PYRI- MIDIN-1′-YL)-[1,3]DI- OXOLAN-2(S)-YL- METHYL]ESTER O-PHENYL ESTER]
  Factor (Resistance Factor = Ratio of dCK- on Wild-type CCRF-CEM): >4 000

## CC(=O)OCC1OC2OC(C)(OC[C@H]3OC[C@@H](n4ccc(NC(=O)OCc5ccccc5)nc4=O)O3)OC2C(OC(C)=O)C1OC(C)=O (stereo partly drawn) [Compound 148, Acetic acid 6-acetoxy-5-acetoxy-methyl-2-[4-(4-benzyl-oxycarbonylamino-2-ox-o-2H-pyrimidin-1-yl)-[1,3]di-oxolan-2-ylmeth-oxy]-2-methyl-tetra-hydro-[1,3]di-oxolo[4,5-b]py-ran-7-yl ester]
  Factor (Resistance Factor = Ratio of dCK- on Wild-type CCRF-CEM): 4

## CC(C(=O)OC[C@H]1OC[C@@H](n2ccc(N)nc2=O)O1)C(c1ccccc1)c1ccccc1 (stereo partly drawn) [Compound 157, (2S,4S)-(3″-DIPHENYL-2″-METHYL- PROPIOXYMETHYL)-4-CYTO- SIN-1′-YL-1,3-DI- OXOLANE]
  Factor (Resistance Factor = Ratio of dCK- on Wild-type CCRF-CEM): > 8330

## CCOC(OCC)(OC[C@H]1OC[C@@H](n2ccc(N)nc2=O)O1)c1ccccc1 [Compound 170, 4-AMINO-1-[2-(DIETHOXY-PHE- NYL-METHOXYMETHYL)-[1,3]DI- OXOLAN-4-YL]-1H-PYRI- MIDIN-2-ONE]
[1]
  IC50: 0.21 µM
[2]
  IC50: > 100 µM
[3]
  IC50: 0.49 µM
[4]
  IC50: 0.63 µM
[5]
  IC50: 1 µM
  Resistance Factor = Ratio of dCK- on Wild-type CCRF-CEM: >476

## COC(OC)(OC)OC[C@H]1OC[C@@H](n2ccc(N)nc2=O)O1 [Compound 177, 4-AMINO-1-(2-TRI- METHOXYMETHOXYMETHYL-[1,3]DI- OXOLAN-4-YL)-1H-PYRI- MIDIN-2-ONE]
  Resistance Factor = Ratio of dCK- on Wild-type CCRF-CEM: > 1050

## O=C(Nc1ccn([C@@H]2CO[C@H](COC(=O)OCc3ccc([N+](=O)[O-])cc3)O2)c(=O)n1)OCc1ccc([N+](=O)[O-])cc1 [Compound 181, CARBONIC ACID 4-NITRO-BENZYL ESTER 4-[4-(4-NITRO-BENZYL- OXYCARBONYLAMINO)-2-OX- O-2H-PYRIMIDIN-1-YL]-[1,3]DI- OXOLAN-2-YLMETHYL ESTER]
[1]
  IC50: 0.037 µM
[2]
  IC50: > 100 µM
[3]
  IC50: 0.49 µM
[4]
  IC50: 0.14 µM
[5]
  IC50: 0.17 µM
  Resistance Factor = Ratio of dCK- on Wild-type CCRF-CEM: >2700
